According to article PMC8287944, “5-Fluorouracil blocks quorum-sensing of biofilm-embedded methicillin-resistant Staphylococcus aureus in mice” (Nucleic Acids Research, 2021):

Assays:
V. harveyi (BB170) [1] = experiment: V. harveyi BB170 growth (OD600 after 24 h); format: cell-based, Vibrio harveyi; conditions: V. harveyi BB170, OD600 after 24 h
Procedure: (§1) The test strain V. harveyi BB170 was grown overnight in Luria Marine (LM)-medium ([25]). The culture was 1:500 diluted in AB-medium (0.3 M NaCl, 10 mM potassium phosphate, 1 mM L-arginine, […], 1% glycerol) the next day, and then challenged with various chemical compounds. After 5 h of shaking at 200 rpm at 30°C, the bioluminescence of BB170 was quantified on a GENios Pro plate reader (Tecan, Männedorf, Switzerland).
(§2) Figure 3. Bioactivity of hit candidates against Vibrio harveyi. Effect on bacterial growth. V. harveyi (BB170) was grown in the presence of individual compounds (A–H) for 5 h and the bioluminescence (green circles) was quantified. After a total of 24 h, bacterial growth (+) was evaluated by measuring the optical density (OD600). The gray translucent background in (C) represents the narrow range within which the compound reduces bioluminescence without affecting growth.

V. harveyi (BB170) [2] = experiment: V. harveyi BB170 bioluminescence (5 h); format: cell-based, Vibrio harveyi; conditions: V. harveyi BB170, 5 h
Procedure: as §1, §2

MRSA ATCC 43300 [3] = experiment: AI-2 activity of MRSA ATCC 43300; format: cell-based, Staphylococcus aureus; conditions: MRSA ATCC 43300, 3 h, different 5-FU concentrations
Procedure: To confirm that the phenotype could be restored, 1 μM synthetic (S)-4,5-dihydroxy-2,3-pentanedione (DPD) (Biosynth Carbosynth, Staad, Switzerland) was used. After 3 h under static conditions at 37°C, the supernatant was analysed for AI-2 activity with V. harveyi (MM32).
(§3) Figure 4. Bioactivity of 5-FU against MRSA ATCC 43300. (A) Quorum sensing-associated AI-2 activity of MRSA 43300 grown for 3 h with different 5-FU concentrations. (B) Effect of different 5-FU concentrations on MRSA 43300 growth. (C) Interference with biofilm formation. (D) Effect on adherent MRSA 43300. Data points represent three biological replicates expressed as mean ± SD (**P < 0.01; ***P < 0.001; ****P < 0.0001).
Figure 5. Phenotype restoration with synthetic AI-2 supplementation. AI-2 activity of MRSA ATCC 43300 was evaluated with and without 1 μM DPD in the presence of different 5-FU concentrations. The dashed line indicates the baseline level of AI-2 of MRSA ATCC 43300 in the absence of 5-FU. Values represent 3 biological replicates expressed as mean ± SD (**P < 0.01; ****P < 0.0001).

MRSA ATCC 43300 [4] = experiment: Adherent MRSA quantification (CFU plating); format: cell-based, Staphylococcus aureus; conditions: 0.1 μM 5-FU, 24 h
Procedure: To quantify the amount of adherent bacteria, 2 – 3 × 10^5 CFU/ml MRSA were grown for 24 h in the presence of different 5-FU concentrations. After incubation under static conditions at 37°C, the plate was washed twice with PBS. Adherent bacteria were removed with 100 μl PBS and appropriate dilutions were plated on Mueller-Hinton agar (Becton Dickinson AG, Allschwil, Switzerland) plates overnight at 37°C. Three independent experiments were performed, each performed in triplicate, and the mean values were calculated. Dimethyl sulfoxide (DMSO) was used as a control.
as §3

MRSA ATCC 43300 [5] = experiment: Biofilm formation (Crystal Violet); format: cell-based, Staphylococcus aureus; conditions: 0.1 μM 5-FU, 24 h
Procedure: To quantify the formation of bacterial biofilms, bacteria were grown for 24 h in the presence of potential inhibitors in 96-well polystyrene plates. The plates were then washed three times with distilled water. Remaining cells were stained with 0.1% Crystal Violet solution (5% methanol, 5% isopropanol) and further washed to remove excess dye. Crystal Violet was redissolved in 20% acetic acid solution and the absorbance of the solution was measured at 600 nm.
as §3

SMILES: O=c1[nH]cc(F)c(=O)[nH]1 [5-Fluorouracil]
- Effect on V. harveyi growth (V. harveyi (BB170) [1]): without decreasing the growth
- Effect on V. harveyi bioluminescence (V. harveyi (BB170) [2]): reduced the bioluminescence
- AI-2 production and quorum-sensing capacity of MRSA (MRSA ATCC 43300 [3]): dose-dependently reduced
- Number of adherent MRSA (MRSA ATCC 43300 [4]): reduced the number of adherent MRSA
- Biofilm formation of MRSA (MRSA ATCC 43300 [5]): significantly decreased biofilm formation
